How the values were obtained:
Assay type in all cases: in vivo
Crabgrass [1] = experiment: Postemergence herbicidal activity, % control of plant growth; details: Digitaria sanguinalis, post-emergence, 264 h, 8 lb/acre, about 11 days
Procedure, shortened: (§1)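 Emerged plants were treated by spraying soil and foliage, about 2 weeks after planting, with compound at 8 lb per acre; evaluation by visual observation of percent control of plant growth took place about 11 days after treatment.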

Barnyard Grass [2] = experiment: as above; details: Echinochloa crus-galli, post-emergence, 264 h, 8 lb/acre, about 11 days
Procedure, shortened: as §1

Velvetleaf [3] = experiment: as above; details: Abutilon theophrasti, post-emergence, 264 h, 8 lb/acre, about 11 days
Procedure, shortened: as §1

Pigweed [4] = experiment: as above; details: Amaranthus retroflexus, post-emergence, 264 h, 8 lb/acre, about 11 days
Procedure, shortened: as §1

Alfalfa [5] = experiment: as above; details: Medicago sativa, post-emergence, 264 h, 8 lb/acre, about 11 days
Procedure, shortened: as §1

Chickweed [6] = experiment: as above; details: post-emergence, 264 h, 8 lb/acre, about 11 days
Procedure, shortened: as §1

Cucumber [7] = experiment: as above; details: Cucumis sativus, post-emergence, 264 h, 8 lb/acre, about 11 days
Procedure, shortened: as §1

Corn [8] = experiment: as above; details: Zea mays, post-emergence, 264 h, 8 lb/acre, about 11 days
Procedure, shortened: as §1

Nutgrass [9] = experiment: as above; details: post-emergence, 264 h, 8 lb/acre, about 11 days
Procedure, shortened: as §1

Lambsquarters [10] = experiment: as above; details: Chenopodium album, post-emergence, 264 h, 8 lb/acre, about 11 days
Procedure, shortened: as §1

Curled Dock [11] = experiment: as above; details: post-emergence, 264 h, 8 lb/acre, about 11 days
Procedure, shortened: as §1

Wild Oats [12] = experiment: as above; details: Avena fatua, post-emergence, 264 h, 8 lb/acre, about 11 days
Procedure, shortened: as §1

Snapbeans [13] = experiment: as above; details: post-emergence, 264 h, 8 lb/acre, about 11 days
Procedure, shortened: as §1

Johnsongrass [14] = experiment: as above; details: Sorghum halepense, post-emergence, 264 h, 8 lb/acre, about 11 days
Procedure, shortened: as §1

Cheatgrass [15] = experiment: as above; details: Bromus tectorum, post-emergence, 264 h, 8 lb/acre, about 11 days
Procedure, shortened: as §1

Yellow Rocket [16] = experiment: as above; details: post-emergence, 264 h, 8 lb/acre, about 11 days
Procedure, shortened: as §1

Foxtail [17] = experiment: as above; details: Setaria, post-emergence, 264 h, 8 lb/acre, about 11 days
Procedure, shortened: as §1

Crabgrass [18] = experiment: Preemergence herbicidal activity, % control of plant growth; details: Digitaria sanguinalis, pre-emergence, 504 h, 16 lb/acre, about 3 weeks
Procedure, shortened: (§2)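 Visual % control (average), ~3 weeks after a 16 lb/acre pre-emergence soil spray applied immediately after sowing; compound as ~2 wt% solution in acetone and/or alcohol.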

Barnyard Grass [19] = experiment: as above; details: Echinochloa crus-galli, pre-emergence, 504 h; barnyard grass; 16 lb/acre; about 3 weeks
Procedure, shortened: as §2

Velvetleaf [20] = experiment: as above; details: Abutilon theophrasti, pre-emergence, 504 h, 16 lb/acre, about 3 weeks
Procedure, shortened: as §2

Pigweed [21] = experiment: as above; details: Amaranthus retroflexus, pre-emergence, 504 h, 16 lb/acre, about 3 weeks
Procedure, shortened: as §2

Alfalfa [22] = experiment: as above; details: Medicago sativa, pre-emergence, 504 h, 16 lb/acre, about 3 weeks
Procedure, shortened: as §2

Chickweed [23] = experiment: as above; details: pre-emergence, 504 h, 16 lb/acre, about 3 weeks
Procedure, shortened: as §2

Cucumber [24] = experiment: as above; details: Cucumis sativus, pre-emergence, 504 h, 16 lb/acre, about 3 weeks
Procedure, shortened: as §2

Corn [25] = experiment: as above; details: Zea mays, pre-emergence, 504 h, 16 lb/acre, about 3 weeks
Procedure, shortened: as §2

Nutgrass [26] = experiment: as above; details: pre-emergence, 504 h, 16 lb/acre, about 3 weeks
Procedure, shortened: as §2

Lambsquarters [27] = experiment: as above; details: Chenopodium album, pre-emergence, 504 h, 16 lb/acre, about 3 weeks
Procedure, shortened: as §2

Curled Dock [28] = experiment: as above; details: pre-emergence, 504 h, 16 lb/acre, about 3 weeks
Procedure, shortened: as §2

Wild Oats [29] = experiment: as above; details: Avena fatua, pre-emergence, 504 h, 16 lb/acre, about 3 weeks
Procedure, shortened: as §2

Snapbeans [30] = experiment: as above; details: pre-emergence, 504 h, 16 lb/acre, about 3 weeks
Procedure, shortened: as §2

Johnsongrass [31] = experiment: as above; details: Sorghum halepense, pre-emergence, 504 h, 16 lb/acre, about 3 weeks
Procedure, shortened: as §2

Cheatgrass [32] = experiment: as above; details: Bromus tectorum, pre-emergence, 504 h, 16 lb/acre, about 3 weeks
Procedure, shortened: as §2

Yellow Rocket [33] = experiment: as above; details: pre-emergence, 504 h, 16 lb/acre, about 3 weeks
Procedure, shortened: as §2

Foxtail [34] = experiment: as above; details: Setaria, pre-emergence, 504 h, 16 lb/acre, about 3 weeks
Procedure, shortened: as §2

CCCCn1c(=O)[nH]c2nccnc2c1=O [Lumazine, 3-butyl]
0%: pest or weed control at 8966.8 g/ha (Crabgrass [1]) | pest or weed control at 8966.8 g/ha (Barnyard Grass [2]) | pest or weed control at 8966.8 g/ha (Velvetleaf [3]) | pest or weed control at 8966.8 g/ha (Pigweed [4]) | pest or weed control at 8966.8 g/ha (Alfalfa [5]) | pest or weed control at 8966.8 g/ha (Chickweed [6]) | pest or weed control at 8966.8 g/ha (Cucumber [7]) | plant injury at 8966.8 g/ha (Corn [8]) | pest or weed control at 8966.8 g/ha (Nutgrass [9]) | pest or weed control at 8966.8 g/ha (Curled Dock [11]) | pest or weed control at 8966.8 g/ha (Wild Oats [12]) | pest or weed control at 8966.8 g/ha (Snapbeans [13]) | pest or weed control at 8966.8 g/ha (Johnsongrass [14]) | pest or weed control at 8966.8 g/ha (Cheatgrass [15]) | pest or weed control at 8966.8 g/ha (Foxtail [17]) | pest or weed control at 17933.6 g/ha (Crabgrass [18]) | pest or weed control at 17933.6 g/ha (Barnyard Grass [19]) | pest or weed control at 17933.6 g/ha (Velvetleaf [20]) | pest or weed control at 17933.6 g/ha (Pigweed [21]) | pest or weed control at 17933.6 g/ha (Alfalfa [22]) | pest or weed control at 17933.6 g/ha (Cucumber [24]) | plant injury at 17933.6 g/ha (Corn [25]) | pest or weed control at 17933.6 g/ha (Nutgrass [26]) | pest or weed control at 17933.6 g/ha (Lambsquarters [27]) | pest or weed control at 17933.6 g/ha (Curled Dock [28]) | pest or weed control at 17933.6 g/ha (Wild Oats [29]) | pest or weed control at 17933.6 g/ha (Johnsongrass [31]) | pest or weed control at 17933.6 g/ha (Cheatgrass [32]) | pest or weed control at 17933.6 g/ha (Yellow Rocket [33]) | pest or weed control at 17933.6 g/ha (Foxtail [34])
70%: pest or weed control at 8966.8 g/ha (Lambsquarters [10]) | pest or weed control at 8966.8 g/ha (Yellow Rocket [16])
20%: pest or weed control at 17933.6 g/ha (Snapbeans [30])
90%: pest or weed control at 17933.6 g/ha (Chickweed [23])

O=c1[nH]c2nccnc2c(=O)n1C1CCCCC1 [Lumazine, 3-cyclohexyl]
20%: pest or weed control at 8966.8 g/ha (Crabgrass [1]) | pest or weed control at 8966.8 g/ha (Johnsongrass [14]) | pest or weed control at 17933.6 g/ha (Barnyard Grass [19]) | pest or weed control at 17933.6 g/ha (Wild Oats [29]) | pest or weed control at 17933.6 g/ha (Foxtail [34])
100%: pest or weed control at 8966.8 g/ha (Velvetleaf [3]) | pest or weed control at 8966.8 g/ha (Alfalfa [5]) | pest or weed control at 8966.8 g/ha (Cucumber [7]) | pest or weed control at 8966.8 g/ha (Nutgrass [9]) | pest or weed control at 8966.8 g/ha (Lambsquarters [10]) | pest or weed control at 8966.8 g/ha (Curled Dock [11]) | pest or weed control at 8966.8 g/ha (Snapbeans [13]) | pest or weed control at 8966.8 g/ha (Yellow Rocket [16]) | pest or weed control at 17933.6 g/ha (Velvetleaf [20]) | pest or weed control at 17933.6 g/ha (Pigweed [21]) | pest or weed control at 17933.6 g/ha (Alfalfa [22]) | pest or weed control at 17933.6 g/ha (Chickweed [23]) | pest or weed control at 17933.6 g/ha (Cucumber [24]) | pest or weed control at 17933.6 g/ha (Nutgrass [26]) | pest or weed control at 17933.6 g/ha (Lambsquarters [27]) | pest or weed control at 17933.6 g/ha (Snapbeans [30]) | pest or weed control at 17933.6 g/ha (Yellow Rocket [33])
50%: pest or weed control at 8966.8 g/ha (Cheatgrass [15])
40%: plant injury at 17933.6 g/ha (Corn [25])
80%: pest or weed control at 17933.6 g/ha (Crabgrass [18])
30%: pest or weed control at 17933.6 g/ha (Johnsongrass [31])
90%: pest or weed control at 8966.8 g/ha (Pigweed [4]) | pest or weed control at 8966.8 g/ha (Chickweed [6]) | pest or weed control at 17933.6 g/ha (Curled Dock [28])
10%: pest or weed control at 8966.8 g/ha (Barnyard Grass [2]) | plant injury at 8966.8 g/ha (Corn [8]) | pest or weed control at 8966.8 g/ha (Wild Oats [12]) | pest or weed control at 8966.8 g/ha (Foxtail [17]) | pest or weed control at 17933.6 g/ha (Cheatgrass [32])

CCC(C)n1c(=O)[nH]c2nccnc2c1=O (stereo not drawn) [Lumazine, 3-sec-butyl]
90%: pest or weed control at 8966.8 g/ha (Velvetleaf [3]) | pest or weed control at 17933.6 g/ha (Snapbeans [30]) | pest or weed control at 17933.6 g/ha (Cheatgrass [32])
10%: pest or weed control at 17933.6 g/ha (Cucumber [24]) | plant injury at 17933.6 g/ha (Corn [25])
30%: pest or weed control at 17933.6 g/ha (Wild Oats [29]) | pest or weed control at 17933.6 g/ha (Foxtail [34])
60%: pest or weed control at 8966.8 g/ha (Cucumber [7])
20%: pest or weed control at 8966.8 g/ha (Pigweed [4]) | pest or weed control at 8966.8 g/ha (Snapbeans [13])
0%: pest or weed control at 8966.8 g/ha (Crabgrass [1]) | pest or weed control at 8966.8 g/ha (Barnyard Grass [2]) | pest or weed control at 8966.8 g/ha (Chickweed [6]) | plant injury at 8966.8 g/ha (Corn [8]) | pest or weed control at 8966.8 g/ha (Nutgrass [9]) | pest or weed control at 8966.8 g/ha (Wild Oats [12]) | pest or weed control at 8966.8 g/ha (Johnsongrass [14]) | pest or weed control at 8966.8 g/ha (Cheatgrass [15]) | pest or weed control at 8966.8 g/ha (Foxtail [17])
50%: pest or weed control at 8966.8 g/ha (Alfalfa [5]) | pest or weed control at 8966.8 g/ha (Curled Dock [11])
40%: pest or weed control at 17933.6 g/ha (Barnyard Grass [19]) | pest or weed control at 17933.6 g/ha (Chickweed [23]) | pest or weed control at 17933.6 g/ha (Nutgrass [26]) | pest or weed control at 17933.6 g/ha (Johnsongrass [31])
70%: pest or weed control at 17933.6 g/ha (Curled Dock [28])
100%: pest or weed control at 8966.8 g/ha (Lambsquarters [10]) | pest or weed control at 8966.8 g/ha (Yellow Rocket [16]) | pest or weed control at 17933.6 g/ha (Crabgrass [18]) | pest or weed control at 17933.6 g/ha (Velvetleaf [20]) | pest or weed control at 17933.6 g/ha (Pigweed [21]) | pest or weed control at 17933.6 g/ha (Alfalfa [22]) | pest or weed control at 17933.6 g/ha (Lambsquarters [27]) | pest or weed control at 17933.6 g/ha (Yellow Rocket [33])

From US3960877A, “N-monosubstituted-2,3-pyridinedicarboxamides, and related compounds” (priority 1974, dated 1976)
